In patent US12344618B2, “Heterotricyclic derivative compound and use of same” (HANMI PHARMACEUTICAL CO., LTD., priority 2019, dated 2025):

Assays:
EZH1 = target: T1, EZH1 (Homo sapiens, UniProt Q92800); assay: Inhibitory activity against EZH1 methyltransferase (radiometric scintillation proximity assay); format: biochemical; conditions: 2.3 nmol/L enzyme, 90 minutes, room temperature;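 further: Read-out is methylation of a substrate peptide, captured on streptavidin-coated SPA beads and counted by scintillation, in Tris-HCl buffer at pH 8.0 with 1% DMSO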
T1 construct: purchased Reaction Biology Corp. (contract assay)

[1] = test system: KARPAS-422 (EZH2 Y641N mutation); assay: Cell growth inhibition test, KARPAS-422; format: cell-based; conditions: Homo sapiens, KARPAS-422, 168 h, KARPAS-422, culture time 7 days; read-out: Cell growth inhibitory activity (GI50, nM) KARPAS-422 (EZH2 Y641N mutation)
[2] = test system: Pfeiffer (EZH2 A677G mutation); assay: Cell growth inhibition test, Pfeiffer; format: cell-based; conditions: Homo sapiens, read-out: Cell growth inhibitory activity (GI50, nM) Pfeiffer (EZH2 A677G mutation)
Description: Each type of the cultured cells was seeded in 6-well plates or 48-96 well plates, and subculture or medium replacement was performed every 3 to 4 days. Next, the cells were subcultured for a total of 7 to 14 days, and then seeded in 96-well plates. 3 to 5 days before the measurement of the effect, the cells were seeded in 96-well plates, and then the absorbance (Tz) on the day of seeding was measured. The absorbance after the reaction was measured by the plate reader device Synergy NeoAlpha (Biotek) using Cell-Titer-Glo Cell Viability Assay (Promega, G7573) according to the attached manual. Based on the absorbance (Tz) measured on the seeding day and the absorbance of each of the DMSO-treated group (C) and the sample-added group (Ti) measured on the day of effect determination, the percentage of cell proliferation inhibition was calculated according to the following Equation 1. [(Ti−Tz)/(C−Tz)]×100 for concentrations for which Ti≥Tz […] for concentrations for which Ti<Tz. [Equation 1]

[3] = Metabolic stability in human liver microsomes; format: in vitro ADME; conditions: 5 μM compound, 1 mg/mL human liver microsomes, 37° C., NADPH regenerating system
Description: (§1) In order to confirm the metabolic stability of the synthetic compounds in the liver, 5 μM test compound and 1 mg/mL human, dog, rat or mouse liver microsomes were allowed to react with each other at 37° C. in the presence of the NADPH regenerating system for 1 hour. After 1 hour, the reaction was terminated and the supernatant obtained by centrifugation was analyzed by HPLC. With the peak value obtained as the analysis result, the residual amount (%) was calculated using the following equation through the peak value of the test compound after 1 hour of the reaction versus the peak value of the test compound at 0 min. Residual amount (%)=(peak value of test compound after 1 hour of reaction/peak value of test compound at 0 min)×100

[4] = Metabolic stability in mouse liver microsomes; format: in vitro ADME; conditions: 5 μM compound, 1 mg/mL mouse liver microsomes, 37° C., NADPH regenerating system
Description: as §1

[5] = Mouse pharmacokinetics, oral single dose; format: in vivo; conditions: plasma, mice (ICR, male), oral single dose 30 mg/kg
Description: Pharmacokinetics of the synthetic compounds as EZH2 inhibitors in mice (ICR, 8-week-old, male) were tested.
The oral administration group was maintained in a fasting state from the day before the test to 4 hours after administration of the test compound. On the day of administration of the test compound, the weight of each animal was measured and each synthetic compound was formulated using a selected solvent based on 30 mg/kg (10 mL/kg). Each test compound was administered orally in a single dose, a certain amount of the blood was taken at a predetermined time, plasma was isolated therefrom, and the concentration of each test compound in the plasma was analyzed using LC-MS/MS (Waters UPLC H-Class/Xevo TQ; Waters, USA). Pharmacokinetic coefficients were calculated by a linear-log trapezoidal summation formula using a non-compartment analysis of the Phoenix™ WinNonlin (Certara, USA) program through the plasma concentration curve over time.

EZH2 = EZH2 (Homo sapiens, UniProt Q15910); assay: Inhibitory activity against EZH2 methyltransferase (radiometric scintillation proximity assay); conditions: Enzyme inhibitory activity (IC50, nM) EZH2, 2.3 nmol/L enzyme, 90 minutes, room temperature;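 further: Read-out is substrate peptide methylation, captured on streptavidin-coated SPA beads and counted by scintillation, with the reaction run in Tris-HCl buffer at pH 8.0 containing 1% DMSO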
Chain of EZH2 (Q15910 whole entry): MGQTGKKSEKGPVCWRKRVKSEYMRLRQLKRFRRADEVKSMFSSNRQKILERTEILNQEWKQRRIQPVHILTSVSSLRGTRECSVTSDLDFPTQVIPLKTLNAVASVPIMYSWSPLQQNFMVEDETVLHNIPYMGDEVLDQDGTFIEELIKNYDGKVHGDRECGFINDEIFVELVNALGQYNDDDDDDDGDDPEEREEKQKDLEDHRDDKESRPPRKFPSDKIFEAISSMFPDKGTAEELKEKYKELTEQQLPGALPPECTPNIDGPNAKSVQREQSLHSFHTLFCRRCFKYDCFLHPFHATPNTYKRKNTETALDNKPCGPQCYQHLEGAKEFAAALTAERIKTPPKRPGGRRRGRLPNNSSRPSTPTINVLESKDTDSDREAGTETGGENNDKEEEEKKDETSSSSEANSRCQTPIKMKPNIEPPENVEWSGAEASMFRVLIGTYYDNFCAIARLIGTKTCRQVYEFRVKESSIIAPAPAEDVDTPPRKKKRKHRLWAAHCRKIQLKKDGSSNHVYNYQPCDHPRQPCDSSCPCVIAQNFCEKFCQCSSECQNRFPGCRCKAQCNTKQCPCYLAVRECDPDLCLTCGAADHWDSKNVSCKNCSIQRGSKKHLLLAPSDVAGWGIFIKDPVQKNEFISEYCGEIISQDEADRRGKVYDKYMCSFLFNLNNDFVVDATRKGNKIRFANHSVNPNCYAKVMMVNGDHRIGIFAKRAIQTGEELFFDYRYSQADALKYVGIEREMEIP
Chain of EZH2 (O75530 whole entry partner): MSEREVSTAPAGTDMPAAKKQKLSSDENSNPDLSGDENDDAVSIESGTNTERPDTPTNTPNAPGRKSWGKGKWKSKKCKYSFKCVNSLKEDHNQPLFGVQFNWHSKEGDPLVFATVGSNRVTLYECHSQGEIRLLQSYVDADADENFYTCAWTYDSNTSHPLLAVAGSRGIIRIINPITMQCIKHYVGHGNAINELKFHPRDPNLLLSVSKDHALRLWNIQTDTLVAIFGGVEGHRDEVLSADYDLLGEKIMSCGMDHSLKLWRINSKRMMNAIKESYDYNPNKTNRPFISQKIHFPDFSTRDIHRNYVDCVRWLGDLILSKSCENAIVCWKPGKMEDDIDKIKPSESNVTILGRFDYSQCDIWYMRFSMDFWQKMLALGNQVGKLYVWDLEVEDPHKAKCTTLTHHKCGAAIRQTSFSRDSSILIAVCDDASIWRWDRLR
Chain of EZH2 (Q15022 whole entry partner): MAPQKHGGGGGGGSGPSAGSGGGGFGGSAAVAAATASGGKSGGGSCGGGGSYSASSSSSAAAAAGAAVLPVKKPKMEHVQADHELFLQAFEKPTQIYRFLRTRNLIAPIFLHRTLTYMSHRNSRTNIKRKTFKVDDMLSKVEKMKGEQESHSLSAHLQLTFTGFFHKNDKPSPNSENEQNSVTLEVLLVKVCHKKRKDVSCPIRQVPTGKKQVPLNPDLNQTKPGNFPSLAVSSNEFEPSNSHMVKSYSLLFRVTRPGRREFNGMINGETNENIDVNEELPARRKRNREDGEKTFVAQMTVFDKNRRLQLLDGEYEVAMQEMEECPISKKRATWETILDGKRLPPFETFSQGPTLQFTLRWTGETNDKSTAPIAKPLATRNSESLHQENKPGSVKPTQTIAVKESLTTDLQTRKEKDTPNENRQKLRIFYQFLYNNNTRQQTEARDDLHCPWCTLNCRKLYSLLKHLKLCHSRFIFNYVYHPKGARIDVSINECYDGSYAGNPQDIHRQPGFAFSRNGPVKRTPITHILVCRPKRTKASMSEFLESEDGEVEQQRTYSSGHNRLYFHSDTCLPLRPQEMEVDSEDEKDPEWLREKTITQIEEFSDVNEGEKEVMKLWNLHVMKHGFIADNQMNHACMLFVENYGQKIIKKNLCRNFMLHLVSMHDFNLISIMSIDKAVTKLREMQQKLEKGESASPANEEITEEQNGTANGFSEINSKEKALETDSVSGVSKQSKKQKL
Chain of EZH2 (Q09028 whole entry partner): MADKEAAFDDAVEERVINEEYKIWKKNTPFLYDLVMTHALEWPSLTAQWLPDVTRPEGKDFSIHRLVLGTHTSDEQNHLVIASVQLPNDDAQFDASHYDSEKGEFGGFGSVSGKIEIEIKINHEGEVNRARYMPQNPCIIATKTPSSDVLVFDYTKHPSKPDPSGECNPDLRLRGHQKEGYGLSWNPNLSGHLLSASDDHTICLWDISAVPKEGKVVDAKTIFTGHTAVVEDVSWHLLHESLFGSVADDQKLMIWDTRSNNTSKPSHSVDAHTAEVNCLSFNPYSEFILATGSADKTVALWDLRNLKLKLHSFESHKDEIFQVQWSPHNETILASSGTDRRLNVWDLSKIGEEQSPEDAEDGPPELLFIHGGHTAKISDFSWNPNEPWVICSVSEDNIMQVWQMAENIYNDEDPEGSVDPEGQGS
Chain of EZH2 (Q6ZN18 whole entry partner): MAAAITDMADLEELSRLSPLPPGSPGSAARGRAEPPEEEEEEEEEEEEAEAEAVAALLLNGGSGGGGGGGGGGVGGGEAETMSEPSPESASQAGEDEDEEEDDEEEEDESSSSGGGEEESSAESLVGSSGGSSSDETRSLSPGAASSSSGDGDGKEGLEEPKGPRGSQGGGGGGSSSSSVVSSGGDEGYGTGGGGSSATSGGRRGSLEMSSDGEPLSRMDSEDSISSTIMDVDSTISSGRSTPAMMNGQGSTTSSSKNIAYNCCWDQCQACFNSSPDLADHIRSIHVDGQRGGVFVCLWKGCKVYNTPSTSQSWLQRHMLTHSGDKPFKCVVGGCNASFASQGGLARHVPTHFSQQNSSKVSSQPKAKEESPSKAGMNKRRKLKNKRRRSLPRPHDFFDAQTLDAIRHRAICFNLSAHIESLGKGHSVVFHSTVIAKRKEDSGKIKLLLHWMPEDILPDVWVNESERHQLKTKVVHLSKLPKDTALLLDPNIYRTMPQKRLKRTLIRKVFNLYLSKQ
Description: The inhibitory activities of the synthetic compounds against EZH1 or EZH2 methyltransferase were measured. The experiment was conducted by Reaction Biology Corp., and the activity of EZH1 or EZH2 was measured using a radiometric scintillation proximity assay. […] The reaction buffer consisted of 50 mmol/L Tris-HCl (pH 8.0), 50 mmol/L NaCl, 1 mmol/L EDTA, 1 mmoL/L DTT, 1 mmol/L PMSF, and 1% DMSO. Trichloroacetic acid was added to terminate the reaction, and PVT streptavidin-coated SPA beads were added to each reaction solution, followed by further reaction at room temperature for 1 hour again. The methylation value of the substrate peptide was measured using the TopCount NXT plate reader.

T1 sequence (Q92800 whole entry): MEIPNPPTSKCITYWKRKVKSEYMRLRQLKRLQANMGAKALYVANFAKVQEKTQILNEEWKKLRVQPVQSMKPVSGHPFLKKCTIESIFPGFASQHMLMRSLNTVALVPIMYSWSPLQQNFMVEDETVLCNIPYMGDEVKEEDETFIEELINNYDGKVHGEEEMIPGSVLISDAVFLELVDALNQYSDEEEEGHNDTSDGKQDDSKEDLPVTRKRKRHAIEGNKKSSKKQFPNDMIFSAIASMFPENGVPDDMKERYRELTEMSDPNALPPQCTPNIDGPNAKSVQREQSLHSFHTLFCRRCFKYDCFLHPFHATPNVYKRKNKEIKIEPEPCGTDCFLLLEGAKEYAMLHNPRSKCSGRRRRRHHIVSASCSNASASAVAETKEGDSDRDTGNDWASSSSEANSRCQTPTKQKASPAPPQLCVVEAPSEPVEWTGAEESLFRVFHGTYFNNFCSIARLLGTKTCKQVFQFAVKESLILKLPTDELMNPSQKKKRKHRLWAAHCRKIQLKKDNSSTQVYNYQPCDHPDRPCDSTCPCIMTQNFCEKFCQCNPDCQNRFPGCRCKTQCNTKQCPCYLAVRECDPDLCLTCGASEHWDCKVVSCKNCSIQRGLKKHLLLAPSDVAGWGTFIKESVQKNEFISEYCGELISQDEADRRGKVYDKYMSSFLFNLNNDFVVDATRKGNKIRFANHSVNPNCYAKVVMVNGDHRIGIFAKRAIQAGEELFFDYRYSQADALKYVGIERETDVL
T1 sequence (O75530 whole entry partner): as the sequence (O75530 whole entry partner) above
T1 sequence (Q15022 whole entry partner): as the sequence (Q15022 whole entry partner) above
T1 sequence (Q09028 whole entry partner): as the sequence (Q09028 whole entry partner) above
T1 sequence (Q6ZN18 whole entry partner): as the sequence (Q6ZN18 whole entry partner) above

IC50 (EZH1): 16 to 43 nM
GI50 [1]: 2 to 15 nM
Residual amount (%) of test compound after 1 hour of reaction, Human [3]: 57%
Residual amount (%) of test compound after 1 hour of reaction, Mouse [4]: 56%
AUC ([5]; male, ICR, mouse, po, 30 mg/kg, read-out: Area under oral curve (AUC)): 14900 to 16400 ng·h/mL
Half life T1/2 [5]: 2.4~2.3 hr
IC50 (EZH2): 1.5 to 5 nM
SMILES: Cc1cc(C)c(CN2CCc3c(Cl)c4c(c(C)c3C2=O)OC(C)([C@H]2CC[C@H](N(C)C)CC2)O4)c(=O)[nH]1 (mixture of isomers) [Compound 9, 9-chloro-6-((4,6-dimethyl-2-oxo-1,2-dihydropyridin-3-yl)methyl)-2-(trans-4-(dimethylamino)cyclohexyl)-2,4-dimethyl-7,8-dihydro-[1,3]dioxolo[4,5-g]isoquinolin-5(6H)-one]
GI50 [2]: 0.97 nM
